ChEMBL document CHEMBL2040706, “Inhibition of hepatitis C virus NS3 helicase by manoalide” (J Nat Prod, 2012)
Activity calls are given as the source filed them. The rule behind the calls is not given here.

What was measured:
[1] = tested on: Hepacivirus hominis; test: Inhibition of HCV NS3 ATPase activity using [32Pgamma]ATP as substrate at 0.1 mM after 60 mins by thin layer chromatography analysis in the absence of poly(U)RNA
[2] = tested on: Hepacivirus hominis; test: Noncompetitive inhibition of HCV NS3 ATPase activity using 1 to 8 mM [32gamma]ATP at 0.1 mM by Lineweaver-Burk plot analysis
[3] = target: T1, ATP-dependent DNA/RNA helicase DHX36 (Homo sapiens) (UniProt Q9H2U1); test: Inhibition of human DHX36/RHAU ATPase activity using [32Pgamma]ATP as substrate for 30 mins in the presence of poly(U)RNA
T1 sequence (whole entry): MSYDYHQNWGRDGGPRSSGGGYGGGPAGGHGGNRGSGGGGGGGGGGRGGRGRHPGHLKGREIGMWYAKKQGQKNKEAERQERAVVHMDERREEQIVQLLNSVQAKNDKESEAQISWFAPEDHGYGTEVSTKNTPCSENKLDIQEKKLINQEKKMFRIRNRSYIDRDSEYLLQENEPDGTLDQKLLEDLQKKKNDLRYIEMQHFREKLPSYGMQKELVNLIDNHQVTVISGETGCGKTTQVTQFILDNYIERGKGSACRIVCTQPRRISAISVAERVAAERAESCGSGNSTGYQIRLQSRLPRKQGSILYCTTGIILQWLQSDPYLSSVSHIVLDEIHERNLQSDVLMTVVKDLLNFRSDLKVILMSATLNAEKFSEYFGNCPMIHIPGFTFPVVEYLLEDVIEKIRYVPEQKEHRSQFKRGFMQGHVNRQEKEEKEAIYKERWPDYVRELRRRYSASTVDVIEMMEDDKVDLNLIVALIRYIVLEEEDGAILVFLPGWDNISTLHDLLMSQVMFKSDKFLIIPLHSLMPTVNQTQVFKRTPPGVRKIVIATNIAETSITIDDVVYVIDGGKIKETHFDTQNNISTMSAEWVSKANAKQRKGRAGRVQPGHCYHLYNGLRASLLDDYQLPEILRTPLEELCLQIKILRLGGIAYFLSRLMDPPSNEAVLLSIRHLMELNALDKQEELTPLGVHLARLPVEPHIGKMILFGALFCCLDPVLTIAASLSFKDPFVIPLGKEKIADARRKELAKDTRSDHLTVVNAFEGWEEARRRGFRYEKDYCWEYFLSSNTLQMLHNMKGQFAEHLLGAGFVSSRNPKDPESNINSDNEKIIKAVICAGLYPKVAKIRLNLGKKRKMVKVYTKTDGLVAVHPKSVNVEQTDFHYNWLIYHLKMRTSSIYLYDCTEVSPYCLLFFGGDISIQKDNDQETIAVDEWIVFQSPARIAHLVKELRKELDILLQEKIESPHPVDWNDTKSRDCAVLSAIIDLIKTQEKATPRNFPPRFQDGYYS

[4] = Inhibition of HCV NS3 RNA helicase activity using [32Pgamma]-labelled partial duplex RNA as substrate incubated for 15 mins prior to ATP addition measured after 30 mins by PAGE analysis; design: species or system Hepacivirus hominis
[5] = tested on: Hepacivirus hominis; test: (§1) Inhibition of HCV NS3 ATPase activity using [32gamma]ATP as substrate after 30 mins by thin layer chromatography analysis in the presence of poly(U)RNA
[6] = as §1; design: species or system Hepacivirus hominis
[7] = tested on: Hepacivirus hominis; test: Binding affinity to HCV NS3 helicase assessed as increase in fluorescence after 15 mins by isothermal denaturation assay
[8] = tested on: Hepacivirus hominis; test: Inhibition of HCV NS3 binding to human 5'-[32Pgamma]-labelled lethal-7 microRNA precursor ssRNA at 0.1 mM after 15 mins by PAGE analysis
[9] = tested on: Hepacivirus hominis; test: Inhibition of HCV NS3 RNA helicase activity using […] as substrate measured every 5 secs for 5 mins and every 30 secs up to 30 mins by photoinduced electron transfer-based fluorescence assay

**Q.** For `CC1=C(CC/C(C)=C/CCC2=CC[C@H](C3=CC(=O)O[C@H]3O)O[C@H]2O)C(C)(C)CCC1` [MANOALIDE], which inhibition [1] is on record?
**A.** The inhibition was “Active”.

**Q.** And the inhibition [2]?
**A.** Its inhibition is “Active”.

**Q.** What about the inhibition [3] of the same compound?
**A.** The inhibition was “Active”.

**Q.** What about the IC50 [4] of the same compound?
**A.** The IC50 was 15 µM.

**Q.** And the inhibition [5]?
**A.** The inhibition was “Dose-dependent effect”.

**Q.** What about the IC50 [6] of the same compound?
**A.** Its IC50 is 70 µM.

**Q.** And the Activity [7]?
**A.** Its Activity is “Dose-dependent effect”.

**Q.** What about the inhibition [8] of the same compound?
**A.** The inhibition was “Active”.

**Q.** What about the inhibition [9] of the same compound?
**A.** The inhibition was “Active”.
